According to patent US9738634B2, “Heterocyclic amide compound and herbicide” (SYNGENTA PARTICIPATIONS AG, priority 2013, dated 2017):

How the values were obtained:
Type in all cases: in vivo
[1] = test system: barnyard grass; assay: Test Example 1: weedkilling efficacy, preemergent weed treatment in the submerged state; A: barnyard grass; conditions: treatment dosage 252 g/ha
Method in brief: (§1)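 Pre-emergence application onto floodwater (4 cm, alluvial soil) on the day of sowing, dose expressed as g/ha from diluted emulsion formulation. Weeds sown with 2.5-leaf transplanted rice as crop; plants held at 25–30 °C in greenhouse and scored against assessment criteria after 3 weeks.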

[2] = test system: bulrush; assay: Test Example 1: weedkilling efficacy, preemergent weed treatment in the submerged state; B: bulrush; conditions: treatment dosage 252 g/ha
Method in brief: as §1

[3] = test system: oval-leafed pondweed; assay: Test Example 1: weedkilling efficacy, preemergent weed treatment in the submerged state; C: oval-leafed pondweed; conditions: treatment dosage 252 g/ha
Method in brief: as §1

[4] = test system: transplanted rice; assay: Test Example 1: preemergent weed treatment in the submerged state, effect on crop; a: transplanted rice; conditions: treatment dosage 252 g/ha
Method in brief: as §1

[5] = test system: barnyard grass; assay: Test Example 2: weedkilling efficacy, growth period weed treatment in the submerged state; A: barnyard grass; conditions: treatment dosage 252 g/ha
Method in brief: (§2)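 Weeds treated at the 1-2 leaf stage by application of diluted emulsion onto floodwater (4 cm depth, alluvial soil) at specified g/ha. Grown in greenhouse at 25 to 30° C; herbicidal effect rated three weeks after treatment.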

[6] = test system: bulrush; assay: Test Example 2: weedkilling efficacy, growth period weed treatment in the submerged state; B: bulrush; conditions: treatment dosage 252 g/ha
Method in brief: as §2

[7] = test system: oval-leafed pondweed; assay: Test Example 2: weedkilling efficacy, growth period weed treatment in the submerged state; C: oval-leafed pondweed; conditions: treatment dosage 252 g/ha
Method in brief: as §2

[8] = test system: crabgrass; assay: Test Example 3: weedkilling efficacy through soil treatment; D: crabgrass; conditions: treatment dosage 315 g/ha
Method in brief: (§3)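 Crop and weed responses were judged three weeks after a uniform surface spray of the water-diluted emulsion at the given g/ha rate. Seeds sat beneath about 1.5 cm of sterilized diluvial soil, and boxes stood in a greenhouse at 25 to 30° C.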

[9] = test system: green foxtail; assay: Test Example 3: weedkilling efficacy through soil treatment; E: green foxtail; conditions: treatment dosage 315 g/ha
Method in brief: as §3

[10] = test system: barnyard grass; assay: Test Example 3: weedkilling efficacy through soil treatment; F: barnyard grass; conditions: treatment dosage 315 g/ha
Method in brief: as §3

[11] = test system: wild oat; assay: Test Example 3: weedkilling efficacy through soil treatment; G: wild oat; conditions: treatment dosage 315 g/ha
Method in brief: as §3

[12] = test system: black-grass; assay: Test Example 3: weedkilling efficacy through soil treatment; H: black-grass; conditions: treatment dosage 315 g/ha
Method in brief: as §3

[13] = test system: Italian ryegrass; assay: Test Example 3: weedkilling efficacy through soil treatment; I: Italian ryegrass; conditions: treatment dosage 315 g/ha
Method in brief: as §3

[14] = test system: common wind-grass; assay: Test Example 3: weedkilling efficacy through soil treatment; J: common wind-grass; conditions: treatment dosage 315 g/ha
Method in brief: as §3

[15] = test system: Indian mallow; assay: Test Example 3: weedkilling efficacy through soil treatment; K: Indian mallow; conditions: treatment dosage 315 g/ha
Method in brief: as §3

[16] = test system: redroot pigweed; assay: Test Example 3: weedkilling efficacy through soil treatment; L: redroot pigweed; conditions: treatment dosage 315 g/ha
Method in brief: as §3

[17] = test system: chickweed; assay: Test Example 3: weedkilling efficacy through soil treatment; N: chickweed; conditions: treatment dosage 315 g/ha
Method in brief: as §3

[18] = test system: catchweed; assay: Test Example 3: weedkilling efficacy through soil treatment; O: catchweed; conditions: treatment dosage 315 g/ha
Method in brief: as §3

[19] = test system: birds-eye speedwell; assay: Test Example 3: weedkilling efficacy through soil treatment; p: birds-eye speedwell; conditions: treatment dosage 315 g/ha
Method in brief: as §3

[20] = test system: directly sown rice; assay: Test Example 3: soil treatment, effect on crop; b: directly sown rice; conditions: treatment dosage 315 g/ha
Method in brief: as §3

[21] = test system: corn; assay: Test Example 3: soil treatment, effect on crop; c: corn; conditions: treatment dosage 315 g/ha
Method in brief: as §3

[22] = test system: soybean; assay: Test Example 3: soil treatment, effect on crop; d: soybean; conditions: treatment dosage 315 g/ha
Method in brief: as §3

[23] = test system: wheat; assay: Test Example 3: soil treatment, effect on crop; e: wheat; conditions: treatment dosage 315 g/ha
Method in brief: as §3

[24] = test system: beet; assay: Test Example 3: soil treatment, effect on crop; f: beet; conditions: treatment dosage 315 g/ha
Method in brief: as §3

[25] = test system: rapeseed; assay: Test Example 3: soil treatment, effect on crop; g: rapeseed; conditions: treatment dosage 315 g/ha
Method in brief: as §3

[26] = test system: crabgrass; assay: Test Example 4: weedkilling efficacy by foliar treatment; D: crabgrass; conditions: treatment dosage 315 g/ha
Method in brief: (§4)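 Seeds are spot-sown into sterilized diluvial soil and covered with about 1.5 cm of soil. After 14 days' greenhouse growth at 25 to 30° C, plants are sprayed on stems and leaves with diluted emulsion at the stated g/ha rate, then scored at 3 weeks.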

[27] = test system: green foxtail; assay: Test Example 4: weedkilling efficacy by foliar treatment; E: green foxtail; conditions: treatment dosage 315 g/ha
Method in brief: as §4

[28] = test system: barnyard grass; assay: Test Example 4: weedkilling efficacy by foliar treatment; F: barnyard grass; conditions: treatment dosage 315 g/ha
Method in brief: as §4

[29] = test system: wild oat; assay: Test Example 4: weedkilling efficacy by foliar treatment; G: wild oat; conditions: treatment dosage 315 g/ha
Method in brief: as §4

[30] = test system: black-grass; assay: Test Example 4: weedkilling efficacy by foliar treatment; H: black-grass; conditions: treatment dosage 315 g/ha
Method in brief: as §4

[31] = test system: Italian ryegrass; assay: Test Example 4: weedkilling efficacy by foliar treatment; I: Italian ryegrass; conditions: treatment dosage 315 g/ha
Method in brief: as §4

[32] = test system: common wind-grass; assay: Test Example 4: weedkilling efficacy by foliar treatment; J: common wind-grass; conditions: treatment dosage 315 g/ha
Method in brief: as §4

[33] = test system: Indian mallow; assay: Test Example 4: weedkilling efficacy by foliar treatment; K: Indian mallow; conditions: treatment dosage 315 g/ha
Method in brief: as §4

[34] = test system: redroot pigweed; assay: Test Example 4: weedkilling efficacy by foliar treatment; L: redroot pigweed; conditions: treatment dosage 315 g/ha
Method in brief: as §4

[35] = test system: chickweed; assay: Test Example 4: weedkilling efficacy by foliar treatment; N: chickweed; conditions: treatment dosage 315 g/ha
Method in brief: as §4

[36] = test system: catchweed; assay: Test Example 4: weedkilling efficacy by foliar treatment; O: catchweed; conditions: treatment dosage 315 g/ha
Method in brief: as §4

[37] = test system: birds-eye speedwell; assay: Test Example 4: weedkilling efficacy by foliar treatment; p: birds-eye speedwell; conditions: treatment dosage 315 g/ha
Method in brief: as §4

[38] = test system: directly sown rice; assay: Test Example 4: foliar treatment, effect on crop; b: directly sown rice; conditions: treatment dosage 315 g/ha
Method in brief: as §4

[39] = test system: corn; assay: Test Example 4: foliar treatment, effect on crop; c: corn; conditions: treatment dosage 315 g/ha
Method in brief: as §4

[40] = test system: soybean; assay: Test Example 4: foliar treatment, effect on crop; d: soybean; conditions: treatment dosage 315 g/ha
Method in brief: as §4

[41] = test system: wheat; assay: Test Example 4: foliar treatment, effect on crop; e: wheat; conditions: treatment dosage 315 g/ha
Method in brief: as §4

[42] = test system: beet; assay: Test Example 4: foliar treatment, effect on crop; f: beet; conditions: treatment dosage 315 g/ha
Method in brief: as §4

[43] = test system: rapeseed; assay: Test Example 4: foliar treatment, effect on crop; g: rapeseed; conditions: treatment dosage 315 g/ha
Method in brief: as §4

## CC1=C(c2ccccc2)C(=O)N(C(C)(C)C(=O)Nc2cc(C)cnc2Cl)CO1 [B-3-04]
[1]
  A (barnyard grass) weedkilling efficacy grade: 5 (weed kill ratio 90% or more, (practically complete withering))
[2]
  B (bulrush) weedkilling efficacy grade: 5 (weed kill ratio 90% or more, (practically complete withering))
[3]
  C (oval-leafed pondweed) weedkilling efficacy grade: 4 (weed kill ratio 70% or more, less than 90%)
[4]
  a (transplanted rice) effect on crop grade: 0 (weed kill ratio 5% or less (practically no effect))
[5]
  A (barnyard grass) weedkilling efficacy grade: 4 (weed kill ratio 70% or more, less than 90%)
[6]
  B (bulrush) weedkilling efficacy grade: 4 (weed kill ratio 70% or more, less than 90%)
[7]
  C (oval-leafed pondweed) weedkilling efficacy grade: 3 (weed kill ratio 40% or more, less than 70%)
[8]
  D (crabgrass) weedkilling efficacy grade: 5 (weed kill ratio 90% or more, (practically complete withering))
[9]
  E (green foxtail) weedkilling efficacy grade: 5 (weed kill ratio 90% or more, (practically complete withering))
[10]
  F (barnyard grass) weedkilling efficacy grade: 5 (weed kill ratio 90% or more, (practically complete withering))
[11]
  G (wild oat) weedkilling efficacy grade: 3 (weed kill ratio 40% or more, less than 70%)
[12]
  H (black-grass) weedkilling efficacy grade: 4 (weed kill ratio 70% or more, less than 90%)
[13]
  I (Italian ryegrass) weedkilling efficacy grade: 5 (weed kill ratio 90% or more, (practically complete withering))
[14]
  J (common wind-grass) weedkilling efficacy grade: 5 (weed kill ratio 90% or more, (practically complete withering))
[15]
  K (Indian mallow) weedkilling efficacy grade: 0 (weed kill ratio 5% or less (practically no effect))
[16]
  L (redroot pigweed) weedkilling efficacy grade: 0 (weed kill ratio 5% or less (practically no effect))
[17]
  N (chickweed) weedkilling efficacy grade: 3 (weed kill ratio 40% or more, less than 70%)
[18]
  O (catchweed) weedkilling efficacy grade: 2 (weed kill ratio 20% or more, less than 40%)
[19]
  P (birds-eye speedwell) weedkilling efficacy grade: 4 (weed kill ratio 70% or more, less than 90%)
[20]
  b (directly sown rice) effect on crop grade: 1 (weed kill ratio 5% or more, less than 20%)
[21]
  c (corn) effect on crop grade: 0 (weed kill ratio 5% or less (practically no effect))
[22]
  d (soybean) effect on crop grade: 0 (weed kill ratio 5% or less (practically no effect))
[23]
  e (wheat) effect on crop grade: 0 (weed kill ratio 5% or less (practically no effect))
[24]
  f (beet) effect on crop grade: 1 (weed kill ratio 5% or more, less than 20%)
[25]
  g (rapeseed) effect on crop grade: 0 (weed kill ratio 5% or less (practically no effect))
[26]
  D (crabgrass) weedkilling efficacy grade: 3 (weed kill ratio 40% or more, less than 70%)
[27]
  E (green foxtail) weedkilling efficacy grade: 4 (weed kill ratio 70% or more, less than 90%)
[28]
  F (barnyard grass) weedkilling efficacy grade: 3 (weed kill ratio 40% or more, less than 70%)
[29]
  G (wild oat) weedkilling efficacy grade: 3 (weed kill ratio 40% or more, less than 70%)
[30]
  H (black-grass) weedkilling efficacy grade: 3 (weed kill ratio 40% or more, less than 70%)
[31]
  I (Italian ryegrass) weedkilling efficacy grade: 3 (weed kill ratio 40% or more, less than 70%)
[32]
  J (common wind-grass) weedkilling efficacy grade: 4 (weed kill ratio 70% or more, less than 90%)
[33]
  K (Indian mallow) weedkilling efficacy grade: 2 (weed kill ratio 20% or more, less than 40%)
[34]
  L (redroot pigweed) weedkilling efficacy grade: 0 (weed kill ratio 5% or less (practically no effect))
[35]
  N (chickweed) weedkilling efficacy grade: 3 (weed kill ratio 40% or more, less than 70%)
[36]
  O (catchweed) weedkilling efficacy grade: 2 (weed kill ratio 20% or more, less than 40%)
[37]
  P (birds-eye speedwell) weedkilling efficacy grade: 3 (weed kill ratio 40% or more, less than 70%)
[38]
  b (directly sown rice) effect on crop grade: 0 (weed kill ratio 5% or less (practically no effect))
[39]
  c (corn) effect on crop grade: 0 (weed kill ratio 5% or less (practically no effect))
[40]
  d (soybean) effect on crop grade: 0 (weed kill ratio 5% or less (practically no effect))
[41]
  e (wheat) effect on crop grade: 0 (weed kill ratio 5% or less (practically no effect))
[42]
  f (beet) effect on crop grade: 2 (weed kill ratio 20% or more, less than 40%)
[43]
  g (rapeseed) effect on crop grade: 1 (weed kill ratio 5% or more, less than 20%)
